In ChEMBL document CHEMBL1201862, “PubChem BioAssay data set” (2004):
The source made the active and inactive calls.

Legend:
[1] = molecular target: Photoreceptor-specific nuclear receptor (Homo sapiens, UniProt Q9Y5X4); assay type: functional, cell-based;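 also: CHO-S cells with Gal4-NCOR and VP16-NR2E3 two-hybrid luciferase reporter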
[2] = molecular target: T1, ATP-dependent translocase ABCB1 (Homo sapiens, UniProt P08183); test: inhibition of BCRP-mediated JC-1 efflux – Ig-MXP3 cells, flow cytometry, set 2, dose response (AID 504566); assay type: functional; settings: read-out: EC50_MICROM_;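 also: flow cytometry median green fluorescence of retained JC-1 dye; potency of efflux pump inhibition measured as rising substrate retention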
T1 sequence (P08183 whole entry): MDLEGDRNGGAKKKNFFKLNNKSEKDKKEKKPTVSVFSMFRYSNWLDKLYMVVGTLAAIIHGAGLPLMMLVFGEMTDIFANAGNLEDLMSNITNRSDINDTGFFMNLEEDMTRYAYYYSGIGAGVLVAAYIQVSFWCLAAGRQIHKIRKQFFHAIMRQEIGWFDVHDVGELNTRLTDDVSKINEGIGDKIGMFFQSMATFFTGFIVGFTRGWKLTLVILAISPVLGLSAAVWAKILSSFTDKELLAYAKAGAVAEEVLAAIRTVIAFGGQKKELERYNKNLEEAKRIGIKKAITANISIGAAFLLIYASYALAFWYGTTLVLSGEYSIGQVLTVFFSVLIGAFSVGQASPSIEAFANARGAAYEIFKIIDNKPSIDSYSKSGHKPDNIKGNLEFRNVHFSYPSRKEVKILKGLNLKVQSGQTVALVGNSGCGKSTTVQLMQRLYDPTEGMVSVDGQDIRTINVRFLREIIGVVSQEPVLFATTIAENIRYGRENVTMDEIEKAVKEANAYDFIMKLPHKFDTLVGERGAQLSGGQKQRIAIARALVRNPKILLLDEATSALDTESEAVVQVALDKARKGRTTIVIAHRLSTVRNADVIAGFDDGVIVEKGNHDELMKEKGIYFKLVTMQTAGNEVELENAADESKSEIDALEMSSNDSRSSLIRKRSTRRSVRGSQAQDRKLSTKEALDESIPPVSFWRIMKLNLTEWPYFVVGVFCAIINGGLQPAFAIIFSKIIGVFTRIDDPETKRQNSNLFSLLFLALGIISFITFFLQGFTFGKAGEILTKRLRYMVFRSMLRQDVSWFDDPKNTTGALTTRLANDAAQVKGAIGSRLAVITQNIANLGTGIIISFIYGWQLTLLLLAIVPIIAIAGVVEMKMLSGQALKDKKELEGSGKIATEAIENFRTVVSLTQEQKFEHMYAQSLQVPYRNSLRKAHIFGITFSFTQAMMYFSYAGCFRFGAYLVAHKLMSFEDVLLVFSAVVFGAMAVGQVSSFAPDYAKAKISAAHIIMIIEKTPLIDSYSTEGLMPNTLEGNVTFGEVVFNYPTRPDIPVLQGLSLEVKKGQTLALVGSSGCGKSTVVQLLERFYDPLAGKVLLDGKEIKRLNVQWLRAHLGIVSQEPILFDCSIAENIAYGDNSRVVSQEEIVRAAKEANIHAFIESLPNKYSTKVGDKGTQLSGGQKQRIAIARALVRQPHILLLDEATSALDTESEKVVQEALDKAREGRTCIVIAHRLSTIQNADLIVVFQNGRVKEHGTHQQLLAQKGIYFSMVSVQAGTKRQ

[3] = molecular target: T1, ATP-dependent translocase ABCB1; test: P-gp JC-1 efflux blockade concentration-response – Jurkat-DNR cells, flow cytometry, set 2, dose response (AID 504569); assay type: functional; settings: read-out: EC50_MICROM_;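 also: potency of pump inhibitors that raise cellular JC-1 green fluorescence up to the nicardipine level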
[4] = molecular target: T2, Heat shock factor protein 1 (Mus musculus, UniProt P38532); test: decrease of HSF1-responsive luciferase luminescence – cell-based, NIH3T3, dose retest, confirmation (AID 2382); assay type: functional;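 also: NIH3T3 fibroblasts with HSF1-driven luciferase reporter stressed by proteasome inhibitor MG132; luminescence from HSF1-driven luciferase expression after 8 hours of MG132 stress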
T2 sequence (P38532 whole entry): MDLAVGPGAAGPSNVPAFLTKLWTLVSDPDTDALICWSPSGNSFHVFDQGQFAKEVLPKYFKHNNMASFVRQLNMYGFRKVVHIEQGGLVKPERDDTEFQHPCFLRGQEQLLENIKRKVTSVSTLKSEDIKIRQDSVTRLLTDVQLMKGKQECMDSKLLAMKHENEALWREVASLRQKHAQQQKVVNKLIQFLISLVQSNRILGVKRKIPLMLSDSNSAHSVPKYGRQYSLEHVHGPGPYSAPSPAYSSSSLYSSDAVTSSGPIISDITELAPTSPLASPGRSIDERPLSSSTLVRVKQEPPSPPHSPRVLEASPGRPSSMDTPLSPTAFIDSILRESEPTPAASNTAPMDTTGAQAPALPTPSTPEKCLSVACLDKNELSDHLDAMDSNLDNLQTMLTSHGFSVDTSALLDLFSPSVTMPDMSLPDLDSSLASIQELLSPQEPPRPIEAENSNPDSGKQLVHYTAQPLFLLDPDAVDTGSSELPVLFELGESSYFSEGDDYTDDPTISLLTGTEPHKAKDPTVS

[5] = molecular target: T3, Corticotropin-releasing factor receptor 2/Corticotropin-releasing factor-binding protein (Homo sapiens, UniProt P24387+Q13324); test: Dose Response confirmation of uHTS hits for small molecule antagonists of the CRF-binding protein and CRF-R2 receptor complex.; assay type: functional; settings: read-out: IC50_Mean
T3 sequence (Q13324 whole entry): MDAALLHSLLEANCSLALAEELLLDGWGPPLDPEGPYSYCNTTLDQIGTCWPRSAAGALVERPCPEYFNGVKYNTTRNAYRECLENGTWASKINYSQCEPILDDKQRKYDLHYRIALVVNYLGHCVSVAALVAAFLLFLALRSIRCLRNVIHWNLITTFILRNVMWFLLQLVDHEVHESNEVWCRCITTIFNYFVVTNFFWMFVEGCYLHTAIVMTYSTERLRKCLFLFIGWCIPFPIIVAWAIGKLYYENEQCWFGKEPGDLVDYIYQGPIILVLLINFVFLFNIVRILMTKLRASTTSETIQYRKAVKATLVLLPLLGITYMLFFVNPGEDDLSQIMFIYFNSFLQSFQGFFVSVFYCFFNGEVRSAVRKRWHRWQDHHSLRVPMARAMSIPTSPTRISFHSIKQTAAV
T3 sequence (P24387 whole entry): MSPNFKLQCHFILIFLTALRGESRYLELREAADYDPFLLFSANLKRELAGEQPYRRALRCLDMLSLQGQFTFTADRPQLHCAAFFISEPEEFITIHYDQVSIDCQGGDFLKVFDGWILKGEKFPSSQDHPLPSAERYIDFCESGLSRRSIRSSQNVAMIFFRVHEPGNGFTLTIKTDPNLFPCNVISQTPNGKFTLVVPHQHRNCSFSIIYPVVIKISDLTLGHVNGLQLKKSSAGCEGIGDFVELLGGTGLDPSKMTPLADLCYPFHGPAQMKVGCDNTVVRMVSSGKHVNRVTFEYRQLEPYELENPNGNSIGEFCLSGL

[6] = molecular target: T3, Corticotropin-releasing factor receptor 2/Corticotropin-releasing factor-binding protein; test: activators of CRF receptor 2 with binding protein – uHTS hits, confirmation (AID 602473); assay type: functional; settings: read-out: EC50_Mean
[7] = blockers of CRF-binding protein–CRF-R2 complex – cell-based, uHTS hits, 384-well, dose response (AID 651639); assay type: functional, Homo sapiens; settings: read-out: IC50_Mean
Protein Wnt-3a = Protein Wnt-3a (Mus musculus, UniProt P27467); test: antagonism of Wnt3a pathway luciferase reporter – Wnt-LIGHT cells, luminescence, selectivity assay for Gli-SUFU antagonist project, dose response (AID 651570); assay type: functional; settings: read-out: IC50_Mean;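 also: Wnt-LIGHT reporter cells stimulated with conditioned medium from Wnt3a-producing cells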
Protein Wnt-3a, sequence (P27467 whole entry, the tested form may be a part): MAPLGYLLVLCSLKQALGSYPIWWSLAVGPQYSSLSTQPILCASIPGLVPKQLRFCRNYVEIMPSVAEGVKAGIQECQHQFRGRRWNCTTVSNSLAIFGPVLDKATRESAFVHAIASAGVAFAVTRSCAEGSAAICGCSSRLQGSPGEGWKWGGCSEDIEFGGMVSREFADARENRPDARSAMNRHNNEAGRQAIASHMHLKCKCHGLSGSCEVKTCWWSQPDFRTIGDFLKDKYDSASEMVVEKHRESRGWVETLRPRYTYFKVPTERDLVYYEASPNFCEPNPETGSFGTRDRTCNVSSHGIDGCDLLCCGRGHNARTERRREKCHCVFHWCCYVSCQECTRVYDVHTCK

[8] = molecular target: Hepatocyte nuclear factor 4-alpha (Homo sapiens, UniProt P41235); assay type: functional, cell-based;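 also: biochemical luminescence-based dose-response counterscreen measuring inhibition of HNF4 dimerization, run alongside a screen for blockers of ABHD5–perilipin-5 interaction; split luciferase complementation of HNF4 fusion proteins in cell lysate measuring dimerization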
Hepatocyte nuclear factor 4-alpha, sequence (P41235 whole entry, the tested form may be a part): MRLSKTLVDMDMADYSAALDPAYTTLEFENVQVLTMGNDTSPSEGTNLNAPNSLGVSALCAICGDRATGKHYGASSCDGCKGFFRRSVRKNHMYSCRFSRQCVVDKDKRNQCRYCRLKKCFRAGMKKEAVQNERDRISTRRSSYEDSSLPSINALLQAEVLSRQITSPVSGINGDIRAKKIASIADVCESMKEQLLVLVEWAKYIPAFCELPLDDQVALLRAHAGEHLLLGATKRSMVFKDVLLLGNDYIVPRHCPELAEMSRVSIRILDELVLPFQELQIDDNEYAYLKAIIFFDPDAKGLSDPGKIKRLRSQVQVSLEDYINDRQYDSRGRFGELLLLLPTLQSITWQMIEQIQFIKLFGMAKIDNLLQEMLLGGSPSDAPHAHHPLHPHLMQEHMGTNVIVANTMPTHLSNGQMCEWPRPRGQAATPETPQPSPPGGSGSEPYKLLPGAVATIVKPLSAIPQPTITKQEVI

[9] = inhibition of ARNT PAS-B/TACC3 complex formation – biochemical, AlphaScreen, cherry-picked samples, confirmation (AID 651703); assay type: functional, Homo sapiens;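 also: His-tagged ARNT PAS-B domain paired with GST-TACC3 E629A dimer coactivator fragment; potency of inhibitors that break up the complex and lower AlphaScreen signal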
[10] = molecular target: T4, 1-phosphatidylinositol 4,5-bisphosphate phosphodiesterase gamma-1 (Homo sapiens, UniProt P19174); test: Counterscreen for inhibitors of phospholipase C isozymes (PLC-B3): Fluorescence-based biochemical high throughput dose response assay to identify inhibitors of phospholipase C isozymes (PLC-gamma1).
T4 sequence (P19174 whole entry): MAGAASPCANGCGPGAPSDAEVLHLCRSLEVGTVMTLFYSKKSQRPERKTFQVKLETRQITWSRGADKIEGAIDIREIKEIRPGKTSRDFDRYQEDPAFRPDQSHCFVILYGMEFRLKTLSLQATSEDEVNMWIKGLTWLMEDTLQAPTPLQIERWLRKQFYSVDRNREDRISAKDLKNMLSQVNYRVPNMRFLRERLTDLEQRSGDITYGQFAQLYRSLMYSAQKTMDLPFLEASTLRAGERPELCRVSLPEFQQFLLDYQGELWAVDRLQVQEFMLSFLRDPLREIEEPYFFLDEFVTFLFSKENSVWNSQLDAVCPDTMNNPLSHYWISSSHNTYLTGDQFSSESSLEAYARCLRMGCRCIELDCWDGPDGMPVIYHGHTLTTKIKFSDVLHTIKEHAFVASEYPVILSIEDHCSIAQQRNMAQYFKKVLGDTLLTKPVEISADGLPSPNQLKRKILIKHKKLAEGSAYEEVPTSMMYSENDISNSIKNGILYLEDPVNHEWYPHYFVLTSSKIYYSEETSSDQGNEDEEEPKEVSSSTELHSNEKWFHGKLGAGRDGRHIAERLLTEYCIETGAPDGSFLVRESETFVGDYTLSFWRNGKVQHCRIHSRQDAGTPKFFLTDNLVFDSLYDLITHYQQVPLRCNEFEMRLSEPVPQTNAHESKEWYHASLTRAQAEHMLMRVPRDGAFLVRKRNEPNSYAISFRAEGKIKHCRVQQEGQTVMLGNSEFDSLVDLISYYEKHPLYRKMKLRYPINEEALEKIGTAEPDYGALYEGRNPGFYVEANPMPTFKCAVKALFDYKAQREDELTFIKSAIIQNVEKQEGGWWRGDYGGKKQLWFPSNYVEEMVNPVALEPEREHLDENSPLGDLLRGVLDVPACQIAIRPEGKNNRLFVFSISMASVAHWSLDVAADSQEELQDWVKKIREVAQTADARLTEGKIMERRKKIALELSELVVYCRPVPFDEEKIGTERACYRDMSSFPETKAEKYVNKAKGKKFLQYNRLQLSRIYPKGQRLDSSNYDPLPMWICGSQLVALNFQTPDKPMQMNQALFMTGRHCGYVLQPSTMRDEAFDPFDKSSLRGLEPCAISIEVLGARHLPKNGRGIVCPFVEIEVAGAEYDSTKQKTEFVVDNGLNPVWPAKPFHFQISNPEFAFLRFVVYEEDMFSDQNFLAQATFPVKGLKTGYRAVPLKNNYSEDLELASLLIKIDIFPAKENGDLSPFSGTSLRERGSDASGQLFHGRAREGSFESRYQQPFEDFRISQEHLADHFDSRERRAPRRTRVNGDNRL

[11] = molecular target: T5, 1-phosphatidylinositol 4,5-bisphosphate phosphodiesterase beta-3 (Homo sapiens, UniProt Q01970); test: Fluorescence-based biochemical high throughput dose response assay to identify inhibitors of phospholipase C isozymes (PLC-B3).
T5 sequence (Q01970 whole entry): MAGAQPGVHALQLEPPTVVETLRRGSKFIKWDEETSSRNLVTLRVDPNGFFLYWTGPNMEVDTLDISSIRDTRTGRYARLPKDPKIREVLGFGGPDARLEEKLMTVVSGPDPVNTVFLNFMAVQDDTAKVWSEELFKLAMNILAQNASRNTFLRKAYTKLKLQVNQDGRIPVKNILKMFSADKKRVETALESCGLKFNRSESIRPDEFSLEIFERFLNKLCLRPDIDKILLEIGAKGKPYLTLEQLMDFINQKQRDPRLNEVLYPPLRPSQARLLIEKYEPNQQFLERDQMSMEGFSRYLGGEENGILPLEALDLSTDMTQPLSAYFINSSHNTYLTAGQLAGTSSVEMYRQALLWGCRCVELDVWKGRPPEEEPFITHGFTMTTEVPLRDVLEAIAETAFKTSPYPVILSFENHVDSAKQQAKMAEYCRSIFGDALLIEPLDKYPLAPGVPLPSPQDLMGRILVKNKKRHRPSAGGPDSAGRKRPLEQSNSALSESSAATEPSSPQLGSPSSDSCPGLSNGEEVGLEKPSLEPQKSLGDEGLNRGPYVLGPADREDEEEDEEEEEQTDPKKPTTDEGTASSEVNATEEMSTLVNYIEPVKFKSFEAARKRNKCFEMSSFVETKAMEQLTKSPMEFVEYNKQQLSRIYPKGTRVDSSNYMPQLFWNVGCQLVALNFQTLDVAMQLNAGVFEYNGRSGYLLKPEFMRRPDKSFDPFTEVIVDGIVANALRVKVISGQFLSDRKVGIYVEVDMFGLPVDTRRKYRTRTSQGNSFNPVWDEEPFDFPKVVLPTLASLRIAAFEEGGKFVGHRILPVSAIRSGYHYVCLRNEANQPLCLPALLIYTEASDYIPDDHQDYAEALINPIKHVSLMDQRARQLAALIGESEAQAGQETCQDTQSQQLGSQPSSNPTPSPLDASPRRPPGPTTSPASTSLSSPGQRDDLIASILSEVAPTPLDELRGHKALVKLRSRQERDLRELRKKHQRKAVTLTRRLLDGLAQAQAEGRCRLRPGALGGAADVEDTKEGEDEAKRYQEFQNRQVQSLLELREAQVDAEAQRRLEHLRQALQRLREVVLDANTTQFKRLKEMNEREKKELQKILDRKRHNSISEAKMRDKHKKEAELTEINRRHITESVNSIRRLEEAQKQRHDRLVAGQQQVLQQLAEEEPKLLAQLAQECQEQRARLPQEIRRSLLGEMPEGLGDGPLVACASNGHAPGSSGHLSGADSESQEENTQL

Photoreceptor-specific nuclear receptor, sequence (Q9Y5X4 whole entry, the tested form may be a part): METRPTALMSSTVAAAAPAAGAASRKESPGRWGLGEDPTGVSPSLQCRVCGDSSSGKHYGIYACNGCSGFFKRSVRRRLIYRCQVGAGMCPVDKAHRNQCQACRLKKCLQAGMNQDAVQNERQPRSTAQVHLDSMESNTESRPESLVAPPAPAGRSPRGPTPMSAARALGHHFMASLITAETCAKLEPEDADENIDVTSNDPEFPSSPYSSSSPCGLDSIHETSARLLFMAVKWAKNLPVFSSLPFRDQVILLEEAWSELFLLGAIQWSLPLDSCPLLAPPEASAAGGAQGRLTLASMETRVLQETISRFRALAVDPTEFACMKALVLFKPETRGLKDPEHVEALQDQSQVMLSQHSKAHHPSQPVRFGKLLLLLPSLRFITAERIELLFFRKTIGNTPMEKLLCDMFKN

Which IC50 [1] does the source give for `CC(C(=O)N1CCN(c2ccc(Cl)cc2)CC1)c1ncc(C(F)(F)F)cc1Cl` (configuration not stated) here?
Its IC50 is 3.65 µM (active).

Which EC50 [2] does the source give for `Cc1cc(N2CCN(C(=O)c3ccco3)CC2)n2nc(C)c(-c3ccc(Cl)cc3)c2n1` here?
The EC50 was 17.7 µM (inactive).

And the EC50 [3]?
Its EC50 is 28.1 µM (inactive).

Which EC50 [4] does the source give for `COc1cccc2cc(-c3nnc(-c4ccccc4)o3)c(=O)oc12` here?
Its EC50 is 70.4 µM (active).

And the IC50 [5]?
The IC50 was < 0.368 µM (active).

And the EC50 [6]?
The EC50 was > 53 µM (inactive).

What about the IC50 [7] of the same molecule?
The IC50 was 0.675 µM (active).

Which IC50 (Protein Wnt-3a) does the source give for `CCC(C)CCN1C(N(C)C)=NC[C@@H]1CC(C)C` (some centres not stated) here?
Its IC50 is 6.72 µM (active).

With `N#Cc1ccc(C(C(=O)NC2CCCCC2)n2c(=O)c(-c3ccco3)nc3ccccc32)cc1` (configuration not stated) as the molecule, how does the IC50 [8] read?
The IC50 was 2.39 µM (active).

Which AC50 [9] does the source give for `CCOc1ccccc1Nc1nc(N)nc(CN(C)C2CCCCC2)n1` here?
The AC50 was 80.6 µM (active).

What about the IC50 [10] of the same molecule?
The IC50 was > 123 µM (inactive).

And the IC50 [11]?
The IC50 was > 123 µM (inactive).
